Results from patent publication US20210045385A1, “PYRIDAZINONE-SUBSTITUTED KETOXIMES AS HERBICIDES” (FMC Corporation, priority 2018, published 2021).

Key:
Format in all cases: in vivo
[1] = system: kochia (Kochia scoparia); assay: Test A preemergence, visual plant response rating; settings: approx. 10 days
Summary of the method: (§1)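 Greenhouse pot test in loam–sand soil mix: compound in a surfactant-containing non-phytotoxic solvent applied preemergence (directed soil spray) or postemergence (one- to two-leaf plants, 2–10 cm). Injury scored visually after ~10 days, 0–100.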

[2] = system: foxtail, green (green foxtail, Setaria viridis); assay: Test A preemergence, visual plant response rating; settings: approx. 10 days
Summary of the method: as §1

[3] = system: pigweed (Amaranthus retroflexus); assay: Test A preemergence, visual plant response rating; settings: approx. 10 days
Summary of the method: as §1

[4] = system: Italian ryegrass (Lolium multiflorum); assay: Test A preemergence, visual plant response rating; settings: approx. 10 days
Summary of the method: as §1

[5] = system: barnyardgrass (Echinochloa crus-galli); assay: Test A preemergence, visual plant response rating; settings: approx. 10 days
Summary of the method: as §1

[6] = system: ragweed (common ragweed, Ambrosia elatior); assay: Test A preemergence, visual plant response rating; settings: approx. 10 days
Summary of the method: as §1

[7] = system: kochia (Kochia scoparia); assay: Test A postemergence, visual plant response rating; settings: for Kochia plant response rating (0 to 100 scale): 500 g ai/ha, postemergence, 0 is no effect, 100 is complete control; for Kochia plant response rating: Postemergence, 125 g ai/ha, 0 to 100 scale (0 no effect, 100 complete control)
Summary of the method: as §1

[8] = system: foxtail, green (green foxtail, Setaria viridis); assay: Test A postemergence, visual plant response rating; settings: for Foxtail, Green plant response rating (0 to 100 scale): 500 g ai/ha, postemergence, 0 is no effect, 100 is complete control; for Foxtail, Green plant response rating: Postemergence, 125 g ai/ha, 0 to 100 scale (0 no effect, 100 complete control)
Summary of the method: as §1

[9] = system: pigweed (Amaranthus retroflexus); assay: Test A postemergence, visual plant response rating; settings: for Pigweed plant response rating (0 to 100 scale): 500 g ai/ha, postemergence, 0 is no effect, 100 is complete control; for Pigweed plant response rating: Postemergence, 125 g ai/ha, 0 to 100 scale (0 no effect, 100 complete control)
Summary of the method: as §1

[10] = system: Italian ryegrass (Lolium multiflorum); assay: Test A postemergence, visual plant response rating; settings: for Ryegrass, Italian plant response rating (0 to 100 scale): 500 g ai/ha, postemergence, 0 is no effect, 100 is complete control; for Ryegrass, Italian plant response rating: Postemergence, 125 g ai/ha, 0 to 100 scale (0 no effect, 100 complete control)
Summary of the method: as §1

[11] = system: wheat (Triticum aestivum); assay: Test A postemergence, visual plant response rating; settings: for Wheat plant response rating (0 to 100 scale): 500 g ai/ha, postemergence, 0 is no effect, 100 is complete control; for Wheat plant response rating: Postemergence, 125 g ai/ha, 0 to 100 scale (0 no effect, 100 complete control)
Summary of the method: as §1

[12] = system: galium (catchweed bedstraw, Galium aparine); assay: Test A postemergence, visual plant response rating; settings: for Galium plant response rating (0 to 100 scale): 500 g ai/ha, postemergence, 0 is no effect, 100 is complete control; for Galium plant response rating: Postemergence, 125 g ai/ha, 0 to 100 scale (0 no effect, 100 complete control)
Summary of the method: as §1

[13] = system: barnyardgrass (Echinochloa crus-galli); assay: Test A postemergence, visual plant response rating; settings: for Barnyardgrass plant response rating (0 to 100 scale): 500 g ai/ha, postemergence, 0 is no effect, 100 is complete control; for Barnyardgrass plant response rating: Postemergence, 125 g ai/ha, 0 to 100 scale (0 no effect, 100 complete control)
Summary of the method: as §1

[14] = system: corn (Zea mays); assay: Test A postemergence, visual plant response rating; settings: for Corn plant response rating (0 to 100 scale): 500 g ai/ha, postemergence, 0 is no effect, 100 is complete control; for Corn plant response rating: Postemergence, 125 g ai/ha, 0 to 100 scale (0 no effect, 100 complete control)
Summary of the method: as §1

[15] = system: ragweed (common ragweed, Ambrosia elatior); assay: Test A postemergence, visual plant response rating; settings: for Ragweed plant response rating (0 to 100 scale): 500 g ai/ha, postemergence, 0 is no effect, 100 is complete control; for Ragweed plant response rating: Postemergence, 125 g ai/ha, 0 to 100 scale (0 no effect, 100 complete control)
Summary of the method: as §1

[16] = system: blackgrass (Alopecurus myosuroides); assay: Test A postemergence, visual plant response rating; settings: for Blackgrass plant response rating (0 to 100 scale): 500 g ai/ha, postemergence, 0 is no effect, 100 is complete control; for Blackgrass plant response rating: Postemergence, 125 g ai/ha, 0 to 100 scale (0 no effect, 100 complete control)
Summary of the method: as §1

[17] = system: sedge, umbrella (small-flower umbrella sedge, Cyperus difformis); assay: Test B flooded paddy test, visual plant response rating; settings: 250 g ai/ha, Flood, applied to paddy water, 2-leaf stage, evaluated after 13 to 15 days
Summary of the method: (§2)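 Seedlings at 2 leaves; compound into paddy water (3 cm flood, maintained); 13–15 d greenhouse; visual score relative to controls.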

[18] = system: barnyardgrass (Echinochloa crus-galli); assay: as above; settings: 250 g ai/ha, Flood, applied to paddy water, 2-leaf stage, evaluated after 13 to 15 days
Summary of the method: as §2

[19] = system: ducksalad (Heteranhera limosa); assay: as above; settings: 250 g ai/ha, Flood, applied to paddy water, 2-leaf stage, evaluated after 13 to 15 days
Summary of the method: as §2

[20] = system: rice (Oryza sativa); assay: as above; settings: 250 g ai/ha, Flood, applied to paddy water, 2-leaf stage, evaluated after 13 to 15 days
Summary of the method: as §2

Row | SMILES | Kochia plant response rating (0 to 100 scale) ([1]; 125 g ai/ha Preemergence) | Kochia plant response rating (0 to 100 scale) ([1]; 500 g ai/ha Preemergence) | Foxtail, Green plant response rating (0 to 100 scale) ([2]; 125 g ai/ha Preemergence) | Foxtail, Green plant response rating (0 to 100 scale) ([2]; 500 g ai/ha Preemergence) | Pigweed plant response rating (0 to 100 scale) ([3]; 125 g ai/ha Preemergence) | Pigweed plant response rating (0 to 100 scale) ([3]; 500 g ai/ha Preemergence) | Ryegrass, Italian plant response rating (0 to 100 scale) ([4]; 125 g ai/ha Preemergence) | Ryegrass, Italian plant response rating (0 to 100 scale) ([4]; 500 g ai/ha Preemergence) | Barnyardgrass plant response rating (0 to 100 scale) ([5]; 125 g ai/ha Preemergence) | Barnyardgrass plant response rating (0 to 100 scale) ([5]; 500 g ai/ha Preemergence) | Ragweed plant response rating (0 to 100 scale) ([6]; 125 g ai/ha Preemergence) | Ragweed plant response rating (0 to 100 scale) ([6]; 500 g ai/ha Preemergence) | Kochia plant response rating (0 to 100 scale) [7] | Kochia plant response rating [7] | Foxtail, Green plant response rating (0 to 100 scale) [8] | Foxtail, Green plant response rating [8] | Pigweed plant response rating (0 to 100 scale) [9] | Pigweed plant response rating [9] | Ryegrass, Italian plant response rating (0 to 100 scale) [10] | Ryegrass, Italian plant response rating [10] | other results
1 | CCO/N=C(\c1cccc(Cl)c1)c1c(O)c(C)nn(C)c1=O [Compound 8] | 10 | 60 | 10 | 30 | 30 | 90 | 50 | 50 | 0 | 20 | 0 | 100 | 70 | 10 | 20 | 10 | 20 | 0 | 60 | 30 | Wheat plant response rating (0 to 100 scale) [11]: 0; Wheat plant response rating [11]: 0; Galium plant response rating (0 to 100 scale) [12]: 90; Galium plant response rating [12]: 80; Barnyardgrass plant response rating (0 to 100 scale) [13]: 10; Barnyardgrass plant response rating [13]: 0; Corn plant response rating (0 to 100 scale) [14]: 0; Corn plant response rating [14]: 0; Ragweed plant response rating (0 to 100 scale) [15]: 80; Ragweed plant response rating [15]: 20; Blackgrass plant response rating (0 to 100 scale) [16]: 20; Blackgrass plant response rating [16]: 0; Plant response rating, Sedge, Umbrella (0 to 100 scale, 0 is no effect, 100 is complete control) [17]: 0; Plant response rating, Barnyardgrass (0 to 100 scale, 0 is no effect, 100 is complete control) [18]: 0; Plant response rating, Ducksalad (0 to 100 scale, 0 is no effect, 100 is complete control) [19]: 0; Plant response rating, Rice (0 to 100 scale, 0 is no effect, 100 is complete control) [20]: 0
2 | CCO/N=C(/c1cccc(Cl)c1)c1c(O)c(C)nn(C)c1=O [Compound 9] | 10 | 60 | 20 | 40 | 40 | 90 | 20 | 40 | 0 | 50 | 80 | 90 | 60 | 10 | 30 | 10 | 20 | 0 | 60 | 40 | Wheat plant response rating (0 to 100 scale) [11]: 0; Wheat plant response rating [11]: 0; Galium plant response rating (0 to 100 scale) [12]: 90; Galium plant response rating [12]: 80; Barnyardgrass plant response rating (0 to 100 scale) [13]: 20; Barnyardgrass plant response rating [13]: 0; Corn plant response rating (0 to 100 scale) [14]: 10; Corn plant response rating [14]: 0; Ragweed plant response rating (0 to 100 scale) [15]: 80; Ragweed plant response rating [15]: 30; Blackgrass plant response rating (0 to 100 scale) [16]: 20; Blackgrass plant response rating [16]: 0; Plant response rating, Sedge, Umbrella (0 to 100 scale, 0 is no effect, 100 is complete control) [17]: 0; Plant response rating, Barnyardgrass (0 to 100 scale, 0 is no effect, 100 is complete control) [18]: 0; Plant response rating, Ducksalad (0 to 100 scale, 0 is no effect, 100 is complete control) [19]: 0; Plant response rating, Rice (0 to 100 scale, 0 is no effect, 100 is complete control) [20]: 0
